The subject of this experiment is ASK1/2 (phospho-MKK3 in H2O2-stimulated PBMCs). As to the kind of experiment: ASK1/2 cellular assay: phospho-MKK3 in H2O2-stimulated PBMCs, western blot. In kind it is cell-based. The settings on record: PBMC, 0.5 h, 3 mM H2O2, 30 min, read-out: Inhibition (pIC50) (converted). The method, then:
ASK1/2 activity in vitro was assayed by determining the quantity of phospho-MKK3 protein in H2O2-stimulated PBMCs, using western blot method.
• Lymphoprep (Axis-Shield, Cat. No. 1114545) • Ammonium chloride lysate buffer pH 7.4 (10× concentrated): • NH4Cl—final conc. 1.5 M (Kemika, Cat. No. 0137407) • NaHCO3— final conc. 100 mM (Kemika, Cat. No. 1411007) • Na2EDTA—final conc. 10 mM (Sigma Aldrich; Cat. No. E-4884) • RPMI 1640 (Lonza Cat. No. BE12-115F/U1) • FBS (Sigma Cat. No. F7524, heat inactivated 30′/56° C.) • Dimethyl sulfoxide (DMSO) (Sigma, Cat. No. D2650) • Cell lysis buffer (pH 7.4): PBS+1% Triton X-100 (Sigma Aldrich; Cat. No. X100)—10 ml • Phospho-Stop—1 tablet (Sigma, Cat. No. 4693124001) • Protease Inhibitor—1 tablet (Sigma, Cat. No. 4906837001) • Hydrogen peroxide solution 3% w/w (Sigma Aldrich, Cat. No. H-6520) • PBS (Sigma Aldrich, Cat. No. P4417-100TAB) • Microplate, 96 well, pp, v-bottom, clear (Greiner bio-one; Cat. No. 651201) • Tissue culture plate, 6 well, flat bottom with low evaporation lid (Falcon, Cat. No. 353224) • 50 mL falcon tube (TPP, Cat. No. 91050) • Pierce BCA Protein Assay Kit (Thermo Scientific, Cat. No. 23225) • Immulon® Microtiter™ 96-Well Plate 1B (Thermo Scientific, Cat. No. 3355) • Wes 12-230 kDa Master Kit (Protein Simple, Cat. No. PS-MK14) • MKK3 (D4C3) Rabbit mAb (Cell Signaling, Cat. No. 8535) • Phospho-MKK3 (Ser189)/MKK6 (Ser207) (D8E9) Rabbit mAb (Cell Signaling, Cat. No. 12280)
The assay was configured to run using the following conditions: Tested compounds concentration range: 1-0.0014 μM (7 three-fold serial dilutions); H2O2 concentration: 3 mM
To isolate the PBMCs from buffy coat, the buffy coat was diluted 1:1 in PBS, then the dilute buffy-coat (25 mL) was carefully pipetted on top of 20 mL of Lymphoprep in a falcon tube. The tubes were then spun for 35 min at 400×g. The upper plasma layer is then carefully removed leaving the layer containing the MNCs. The layer containing the MNCs is then transferred to a new tube, PBS is added up to a total volume of 50 mL and the tube is then spun for 10 minutes (200×g, 25° C.). The resulting pellet is then resuspended in 2 mL PBS, the washing step was repeated. The final pellets were resuspended in ammonium chloride lysate buffer up to 50 mL, mixed gently and centrifuged for 10 minutes (200×g, 25° C.), resuspended in 2-3 mL of cell medium and diluted up to 50 mL in cell medium. The cell density of a 1/20 dilution in cell medium was determined using an automated cell counter.
10×10^6 PBMCs were seeded per well in 1 mL of RPMI 1640 cell medium supplemented with 10% FBS in 6-well plates. Seven sets of three-fold serial dilutions of compounds in DMSO starting from 1 mM in 96-well v-bottom plate were prepared. The DMSO compound solutions were diluted 100× in the cell medium. 200 μL of 100× diluted compound solution were added per well, control wells contained 200 μL of 1% DMSO prepared in cell medium. 7.5 mM H2O2 in cell medium was prepared and 800 μL was added to each well, except the negative control well to which 800 μL of cell medium was added. The cells were incubated for 30 min at 37° C., 5% CO2, 95% humidity. The cells were transferred to 2 mL Eppendorf tubes and centrifuged for 10 minutes at 300×g at 4° C., they were then washed with 1 mL PBS, the cell pellet was resuspended in 100 μL of lysis buffer and incubated on ice for 30 minutes. After which time the cell lysates were centrifuged for 5 minutes at 10000×g at 4° C. and the supernatants were then stored at −20° C.
Samples were diluted 5× in cell lysis buffer and total protein concentration was determined in 96-well Immulon 1B plate using BCA Protein Assay Kit following manufacturer's instructions.
Western blot assay was performed using Protein Simple Wes Master Kit and device, following manufacturer's instructions. 0.5 mg/mL of total proteins was loaded per sample; phospho-MKK3 and MKK3 antibodies were diluted 300×. […]

Turning to `Cc1c[nH]c2ncnc(N3CCC(NC(=O)c4cc(N)ncc4Cl)CC3)c12` [Compound 3, 2-amino-5-chloro-N-[1-(5-methyl-7H-pyrrolo[2,3-d]pyrimidin-4-yl)-4-piperidyl]-pyridine-4-carboxamide], the IC50 is 39.8 nM. As for `Cc1c[nH]c2ncc(C#N)c(N3CCC(NC(=O)c4cc(N)ncc4F)CC3)c12` [Compound 6, 2-amino-N-[1-(5-cyano-3-methyl-1H-pyrrolo[2,3-b]pyridin-4-yl)-4-piperidyl]-5-fluoro-pyridine-4-carboxamide], the figure is 12.6 nM; as for `Nc1cc(C(=O)NC2CCN(c3ncnc4[nH]cc(Cl)c34)CC2)c(F)cn1` [Compound 5, 2-amino-N-[1-(5-chloro-7H-pyrrolo[2,3-d]pyrimidin-4-yl)-4-piperidyl]-5-fluoro-pyridine-4-carboxamide], 6.31 nM. As to `Nc1cc(C(=O)NC2CCN(c3ncnc4[nH]cc(Cl)c34)CC2)ccn1` [Compound 4, 2-amino-N-[1-(5-chloro-7H-pyrrolo[2,3-d]pyrimidin-4-yl)-4-piperidyl]pyridine-4-carboxamide], the IC50 was 7.94 nM. `Cc1c[nH]c2ncnc(N3CCC(NC(=O)c4cc(N)ncc4F)CC3)c12` [Compound 1, 2-amino-5-fluoro-N-[1-(5-methyl-7H-pyrrolo[2,3-d]pyrimidin-4-yl)-4-piperidyl]pyridine-4-carboxamide]: the IC50 was 8.91 nM.

As for `Nc1cc(C(=O)NC2CCN(c3ccnc4[nH]cc(Cl)c34)CC2)c(F)cn1` [Compound 7, 2-amino-N-[1-(3-chloro-1H-pyrrolo[2,3-b]pyridin-4-yl)-4-piperidyl]-5-fluoro-pyridine-4-carboxamide], the IC50 was 12.6 nM.

Regarding `Cc1cnc(N)cc1C(=O)NC1CCN(c2ncnc3[nH]cc(C)c23)CC1` [Compound 2, 2-amino-5-methyl-N-[1-(5-methyl-7H-pyrrolo[2,3-d]pyrimidin-4-yl)-4-piperidyl]pyridine-4-carboxamide], the IC50 was 3.16 nM.

The record behind these values is patent US11136325B2, “Pyrrolopyrimidine and pyrrolopyridine derivatives” (GALAPAGOS NV, priority 2017, dated 2021).
